Data: ChEMBL document CHEMBL3297716, “Rhapontigenin suppresses cell migration and invasion by inhibiting the PI3K-dependent Rac1 signaling pathway in MDA-MB-231 human breast cancer cells” (J Nat Prod, 2014)
The source made the active and inactive calls. No cut-off for these calls is given here.

Experiments:
MDA-MB-231 [1] = assay: Inhibition of PI3K in human MDA-MB-231 cells assessed as inhibition of AKT phosphorylation at 1 to 10 uM after 24 hrs by Western blot analysis; assay type: cell-based
MDA-MB-231 [2] = assay: Effect on total AKT protein level in human MDA-MB-231 cells at 1 to 10 uM after 24 hrs by Western blot analysis; assay type: functional, cell-based
Homo sapiens [3] = species on record: Homo sapiens; assay: Inhibition of PI3K-dependent Rac1 activation in human MDA-MB-231 cells assessed as suppression of serum-induced cell migration at 25 uM after 24 hrs by wound-healing assay relative to control; assay type: cell-based
MDA-MB-231 [4] = assay: (§1) Inhibition of PI3K-dependent Rac1 activation in human MDA-MB-231 cells assessed as suppression of serum-induced cell invasion into matrigel at 10 uM preincubated for 30 mins with cells followed by loading into upper well of matrigel coated filter measured after 15 hrs by Boyden chamber analysis relative to control; assay type: cell-based
MDA-MB-231 [5] = assay: Effect on total LIMK1/2 protein level in human MDA-MB-231 cells at 10 to 50 uM after 24 hrs by Western blot analysis; assay type: functional, cell-based
MDA-MB-231 [6] = assay: Cytotoxicity against human MDA-MB-231 cells assessed as cell viability up to 50 uM after 24 hrs by MTT assay; assay type: cell-based; settings: mda-mb-231, 24 h
MDA-MB-231 [7] = assay: Inhibition of PI3K-dependent Rac1 activation in human MDA-MB-231 cells assessed as inhibition of PAK1 phosphorylation at 10 to 50 uM after 24 hrs by Western blot analysis; assay type: cell-based
MDA-MB-231 [8] = assay: Inhibition of PI3K-dependent Rac1 activation in human MDA-MB-231 cells assessed as downregulation of Arp-3 protein expression at 10 to 50 uM after 24 hrs by Western blot analysis; assay type: cell-based
Homo sapiens [9] = species on record: Homo sapiens; assay: Inhibition of PI3K-dependent Rac1 activation in human MDA-MB-231 cells assessed as suppression of serum-induced cell migration at 50 uM after 24 hrs by wound-healing assay relative to control; assay type: cell-based
MDA-MB-231 [10] = assay: Inhibition of PI3K-dependent Rac1 activation in human MDA-MB-231 cells at 50 uM after 30 mins by ELISA relative to untreated control; assay type: cell-based
MDA-MB-231 [11] = assay: Inhibition of PI3K-dependent Rac1 activation in human MDA-MB-231 cells assessed as inhibition of cofilin phosphorylation at 10 to 50 uM after 24 hrs by Western blot analysis; assay type: cell-based
MDA-MB-231 [12] = assay: as §1, with “50” for “10”; assay type: cell-based
MDA-MB-231 [13] = assay: as §1, with “25” for “10”; assay type: cell-based
MDA-MB-231 [14] = assay: Inhibition of PI3K-dependent Rac1 activation in human MDA-MB-231 cells assessed as downregulation of WAVE-2 protein expression at 10 to 50 uM after 24 hrs by Western blot analysis; assay type: cell-based
MDA-MB-231 [15] = assay: Inhibition of PI3K-dependent Rac1 activation in human MDA-MB-231 cells assessed as inhibition of lamellipodia formation at 50 uM after 24 hrs by rhodamine phalloidin/DAPI staining-based confocal microscopic analysis; assay type: cell-based
MDA-MB-231 [16] = assay: Inhibition of PI3K in human MDA-MB-231 cells assessed as downregulation of activated Rac1-GTP protein expression at 50 uM after 30 mins by Western blot analysis; assay type: cell-based
MDA-MB-231 [17] = assay: Effect on total PAK1 protein level in human MDA-MB-231 cells at 10 to 50 uM after 24 hrs by Western blot analysis; assay type: functional, cell-based
MDA-MB-231 [18] = assay: Inhibition of PI3K-dependent Rac1 activation in human MDA-MB-231 cells assessed as downregulation of Arp-2 protein expression at 10 to 50 uM after 24 hrs by Western blot analysis; assay type: cell-based
MDA-MB-231 [19] = assay: Cytotoxicity against human MDA-MB-231 cells assessed as cell viability at 100 to 200 uM after 24 hrs by MTT assay; assay type: cell-based; settings: mda-mb-231, 24 h
MDA-MB-231 [20] = assay: Inhibition of PI3K-dependent Rac1 activation in human MDA-MB-231 cells assessed as inhibition of LIMK1/2 phosphorylation at 10 to 50 uM after 24 hrs by Western blot analysis; assay type: cell-based
MDA-MB-231 [21] = assay: Inhibition of PI3K in human MDA-MB-231 cells assessed as inhibition of AKT phosphorylation at 10 to 50 uM after 24 hrs by Western blot analysis; assay type: cell-based
Homo sapiens [22] = species on record: Homo sapiens; assay: Inhibition of PI3K-dependent Rac1 activation in human MDA-MB-231 cells assessed as suppression of serum-induced cell migration at 10 uM after 24 hrs by wound-healing assay relative to control; assay type: cell-based
MDA-MB-231 [23] = assay: Inhibition of PI3K phosphorylation in human MDA-MB-231 cells at 10 to 50 uM after 24 hrs by Western blot analysis; assay type: cell-based
MDA-MB-231 [24] = assay: Effect on total Rac1 protein expression in human MDA-MB-231 cells after 30 mins by Western blot analysis; assay type: functional, cell-based
MDA-MB-231 [25] = assay: Effect on total AKT protein level in human MDA-MB-231 cells at 10 to 50 uM after 24 hrs by Western blot analysis; assay type: functional, cell-based
MDA-MB-231 [26] = assay: Effect on total PI3K protein level in human MDA-MB-231 cells at 10 to 50 uM after 24 hrs by Western blot analysis; assay type: functional, cell-based
MDA-MB-231 [27] = assay: Inhibition of PI3K-dependent Rac1 activation in human MDA-MB-231 cells at 25 uM after 30 mins by ELISA relative to untreated control; assay type: cell-based
MDA-MB-231 [28] = assay: Effect on total cofilin protein level in human MDA-MB-231 cells at 10 to 50 uM after 24 hrs by Western blot analysis; assay type: functional, cell-based
MDA-MB-231 [29] = assay: Inhibition of PI3K-dependent Rac1 activation in human MDA-MB-231 cells at 10 uM after 30 mins by ELISA relative to untreated control; assay type: cell-based

COC[C@H]1OC(=O)c2coc3c2[C@@]1(C)C1=C(C3=O)[C@@H]2CCC(=O)[C@@]2(C)C[C@H]1OC(C)=O
inhibition (MDA-MB-231 [1]): Active
Activity (MDA-MB-231 [2]): inactive

COc1ccc(/C=C/c2cc(O)cc(O)c2)cc1O
inhibition (Homo sapiens [3]): 44%
inhibition (MDA-MB-231 [4]): 26%
Activity (MDA-MB-231 [5]): inactive
Activity (MDA-MB-231 [6]): Non-toxic
inhibition (MDA-MB-231 [7]): Active
inhibition (MDA-MB-231 [8]): Active
inhibition (Homo sapiens [9]): 70%
inhibition (MDA-MB-231 [10]): 44%
inhibition (MDA-MB-231 [11]): Active
inhibition (MDA-MB-231 [12]): 68%
inhibition (MDA-MB-231 [13]): 50%
inhibition (MDA-MB-231 [14]): Active
inhibition (MDA-MB-231 [15]): Active
inhibition (MDA-MB-231 [16]): Active
Activity (MDA-MB-231 [17]): inactive
inhibition (MDA-MB-231 [18]): Active
Activity (MDA-MB-231 [19]): Toxic
inhibition (MDA-MB-231 [20]): Active
inhibition (MDA-MB-231 [21]): Active
inhibition (Homo sapiens [22]): 25%
inhibition (MDA-MB-231 [23]): Active
Activity (MDA-MB-231 [24]): inactive
Activity (MDA-MB-231 [25]): inactive
Activity (MDA-MB-231 [26]): inactive
inhibition (MDA-MB-231 [27]): 25%
Activity (MDA-MB-231 [28]): inactive
inhibition (MDA-MB-231 [29]): 17%
